One series addresses porcine pepsin (Sus scrofa, UniProt P00791). In words: Peptide resistance to proteolytic digestion by pepsin. Format: in vitro ADME. The settings on record: 50 U of porcine pepsin in simulated gastric fluid at pH 1.0, 30 minutes at 37° C. On the procedure: (§1) This example illustrates peptide stability under various stress conditions such as high temperature, low pH, reducing agents, and proteases. To determine resistance to high temperatures, cystine-dense peptides (CDPs) were incubated at 0.5 mM in PBS at 75° C. or 100° C. for 1 h and pelleted, and the supernatant was analyzed with reversed-phase chromatography (RPC). To determine resistance to proteolytic digestion, CDPs were mixed with 50 U of porcine pepsin, in simulated gastric fluid at pH 1.0, or 50 U of porcine trypsin in PBS, incubated for 30 minutes at 37° C. and analyzed with RPC. Oxidized and reduced forms (prepared through addition 10 mM DTT) were compared. Circular Dichroism spectroscopy was used in order to measure the secondary structure of peptides with a Jasco J-720W spectropolarimeter in a cell with a 1.0-mm path length, and CDPs were diluted into 20 mM phosphate buffer, pH 7.4, at a concentration of 15-25 μM. These conditions were expected to denature or degrade conventional globular proteins and many peptides. In TABLE 10, “high” resistance indicated a high amount of the peptide remained or was retained as unmodified under the given experimental conditions and “low” resistance indicated a low amount of the peptide remained or was retained unmodified under the given experimental conditions. […]

Another series concerns the target porcine trypsin (Sus scrofa, UniProt P00761). Description: Peptide resistance to proteolytic digestion by trypsin. Format: in vitro ADME. The settings on record: 50 U of porcine trypsin in PBS, 30 minutes at 37° C. How it is done:
as §1

Bridge positions count the residues as written; N and C are the ends. Peptide text beside a SMILES is read from it.

Chain of porcine trypsin (P00761 9-231): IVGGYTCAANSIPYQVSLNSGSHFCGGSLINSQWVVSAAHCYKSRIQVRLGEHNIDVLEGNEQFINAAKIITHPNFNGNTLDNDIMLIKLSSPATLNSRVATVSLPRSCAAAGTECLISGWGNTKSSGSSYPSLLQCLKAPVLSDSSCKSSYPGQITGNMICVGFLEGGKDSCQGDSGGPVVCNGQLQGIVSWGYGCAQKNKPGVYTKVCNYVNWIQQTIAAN
Chain of porcine pepsin (P00791 60-385): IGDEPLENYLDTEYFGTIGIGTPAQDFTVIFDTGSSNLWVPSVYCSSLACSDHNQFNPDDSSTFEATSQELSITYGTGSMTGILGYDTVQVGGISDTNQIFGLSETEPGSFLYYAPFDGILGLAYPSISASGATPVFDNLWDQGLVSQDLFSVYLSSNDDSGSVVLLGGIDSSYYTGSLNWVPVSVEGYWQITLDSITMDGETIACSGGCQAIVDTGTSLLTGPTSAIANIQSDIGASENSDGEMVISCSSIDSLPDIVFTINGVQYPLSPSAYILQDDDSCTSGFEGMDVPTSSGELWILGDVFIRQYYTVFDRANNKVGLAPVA

`CC[C@H](C)[C@@H]1NC(=O)[C@@H]2CSSC[C@H](NC(=O)[C@H](CCCCN)NC(=O)[C@@H](NC(=O)[C@H](CC(N)=O)NC(=O)[C@@H](NC(=O)[C@@H]3CCCN3C(=O)[C@@H](NC(=O)CNC(=O)[C@H](CO)NC(=O)CN)C(C)C)[C@@H](C)CC)C(C)C)C(=O)N[C@@H](CCCNC(=N)N)C(=O)NCC(=O)N[C@@H](CO)C(=O)N[C@@H](CCCNC(=N)N)C(=O)N[C@@H](CC(=O)O)C(=O)N[C@H]3CSSC[C@H](NC(=O)[C@H](CCCCN)NC(=O)[C@H](CO)NC(=O)[C@H](CC(N)=O)NC1=O)C(=O)N[C@@H](Cc1c[nH]cn1)C(=O)N[C@H](C(=O)N[C@H](C(=O)N1CCC[C@H]1C(=O)O)[C@@H](C)O)CSSC[C@H](NC(=O)[C@@H]1CCCN1C(=O)[C@H](CC(=O)O)NC(=O)[C@H](CC(C)C)NC3=O)C(=O)N[C@@H](CCCCN)C(=O)N[C@@H](CCCCN)C(=O)N[C@@H](C)C(=O)NCC(=O)N[C@@H](CCSC)C(=O)N[C@@H](CCCNC(=N)N)C(=O)N[C@@H](Cc1ccccc1)C(=O)NCC(=O)N[C@@H](CCCCN)C(=O)N2` [compound 150] (H-GSGVPINVKCRGSRDCLDPCKKAGMRFGKCINSKCHCTP-OH; disulfide 10-30, 16-35, 20-37; N-terminus and C-terminus assumed): on porcine pepsin, the “Resistance to Pepsin” value is reported as “High”. Besides, the “Resistance to Trypsin” value at porcine trypsin is “High”.
